In PMC4441267:

Assay: RuAAC macrocyclisation of azide/terminal alkyne linear peptidomimetics to 1,5-triazole ([Cp*RuCl]4 0.1 eq, Ar-degassed), then Boc removal (TMSCl/MeOH GP4 or HCl/dioxane GP5)
Conditions: toluene (reflux), 1.25 mM, 111.0 °C, 18.0 h, 2 steps

**Q.** With `COC(=O)[C@@H]1CNC(=O)[C@H](Cc2ccccc2)n2nncc2CCC(=O)NCC[C@H](N)C(=O)N1` [Boc-Dab(4-pentynoyl)-Dap(N3-Phe)-OMe] as the compound, how does the ring closure, yield over several steps (from C#CCCC(=O)NCC[C@H](NC(=O)OC(C)(C)C)C(=O)N[C@@H](CNC(=O)[C@H](Cc1ccccc1)N=[N+]=[N-])C(=O)OC, 16-membered ring) read?
**A.** The ring closure, yield over several steps was 60%.

**Q.** For `COC(=O)[C@@H]1CCCCn2nncc2CCC(=O)NCC[C@H](N)C(=O)N1` [Boc-Dab(4-pentynoyl)-Lys(N3)-OMe], which ring closure, yield over several steps (from C#CCCC(=O)NCC[C@H](NC(=O)OC(C)(C)C)C(=O)N[C@@H](CCCCN=[N+]=[N-])C(=O)OC, 16-membered ring) is on record?
**A.** Its ring closure, yield over several steps is 99%.

**Q.** With `COC(=O)[C@@H]1CCCCNC(=O)[C@H](Cc2ccccc2)n2nncc2CCC(=O)NCC[C@H](N)C(=O)N1` [Boc-Dab(4-pentynoyl)-Lys(N3-Phe)-OMe] as the compound, how does the ring closure, yield over several steps (from C#CCCC(=O)NCC[C@H](NC(=O)OC(C)(C)C)C(=O)N[C@@H](CCCCNC(=O)[C@H](Cc1ccccc1)N=[N+]=[N-])C(=O)OC, 19-membered ring) read?
**A.** The ring closure, yield over several steps was 90%.

**Q.** Which ring closure, yield over several steps (from C#CCCC(=O)NCC[C@H](NC(=O)OC(C)(C)C)C(=O)N[C@@H](CCCN=[N+]=[N-])C(=O)OC, 15-membered ring) does the source give for `COC(=O)[C@@H]1CCCn2nncc2CCC(=O)NCC[C@H](N)C(=O)N1` [Boc-Dab(4-pentynoyl)-Orn(N3)-OMe] here?
**A.** The ring closure, yield over several steps was 82%.

**Q.** With `COC(=O)[C@@H]1Cc2ccc(cc2)-n2nncc2CCC(=O)NCC[C@H](N)C(=O)N1` [Boc-Dab(4-pentynoyl)-Phe(4-N3)-OMe] as the compound, how does the ring closure, yield over several steps (from C#CCCC(=O)NCC[C@H](NC(=O)OC(C)(C)C)C(=O)N[C@@H](Cc1ccc(N=[N+]=[N-])cc1)C(=O)OC, 17-membered ring) read?
**A.** The ring closure, yield over several steps was 83%.

**Q.** Which ring closure, yield over several steps (from C#CCCCC(=O)NCC[C@H](NC(=O)OC(C)(C)C)C(=O)N[C@@H](CNC(=O)[C@H](Cc1ccccc1)N=[N+]=[N-])C(=O)OC, 17-membered ring) does the source give for `COC(=O)[C@@H]1CNC(=O)[C@H](Cc2ccccc2)n2nncc2CCCC(=O)NCC[C@H](N)C(=O)N1` [Boc-Dab(5-hexynoyl)-Dap(N3-Phe)-OMe] here?
**A.** Its ring closure, yield over several steps is 99%.

**Q.** Which ring closure, yield over several steps (from C#CCCCC(=O)NCC[C@H](NC(=O)OC(C)(C)C)C(=O)N[C@@H](CCCCN=[N+]=[N-])C(=O)OC, 17-membered ring) does the source give for `COC(=O)[C@@H]1CCCCn2nncc2CCCC(=O)NCC[C@H](N)C(=O)N1` [Boc-Dab(5-hexynoyl)-Lys(N3)-OMe] here?
**A.** Its ring closure, yield over several steps is 99%.

**Q.** With `COC(=O)[C@@H]1CCCCNC(=O)[C@H](Cc2ccccc2)n2nncc2CCCC(=O)NCC[C@H](N)C(=O)N1` [Boc-Dab(5-hexynoyl)-Lys(N3-Phe)-OMe] as the compound, how does the ring closure, yield over several steps (from C#CCCCC(=O)NCC[C@H](NC(=O)OC(C)(C)C)C(=O)N[C@@H](CCCCNC(=O)[C@H](Cc1ccccc1)N=[N+]=[N-])C(=O)OC, 20-membered ring) read?
**A.** The ring closure, yield over several steps was 87%.

**Q.** With `COC(=O)[C@@H]1CCCn2nncc2CCCC(=O)NCC[C@H](N)C(=O)N1` [Boc-Dab(5-hexynoyl)-Orn(N3)-OMe] as the compound, how does the ring closure, yield over several steps (from C#CCCCC(=O)NCC[C@H](NC(=O)OC(C)(C)C)C(=O)N[C@@H](CCCN=[N+]=[N-])C(=O)OC, 16-membered ring) read?
**A.** The ring closure, yield over several steps was 99%.

**Q.** Which ring closure, yield over several steps (from C#CCCCC(=O)NCC[C@H](NC(=O)OC(C)(C)C)C(=O)N[C@@H](Cc1ccc(N=[N+]=[N-])cc1)C(=O)OC, 18-membered ring) does the source give for `COC(=O)[C@@H]1Cc2ccc(cc2)-n2nncc2CCCC(=O)NCC[C@H](N)C(=O)N1` [Boc-Dab(5-hexynoyl)-Phe(4-N3)-OMe] here?
**A.** Its ring closure, yield over several steps is 97%.

**Q.** For `COC(=O)[C@@H]1CNC(=O)[C@H](Cc2ccccc2)n2nncc2CNC(=O)NCC[C@H](N)C(=O)N1` [Boc-Dab(CONH-propargyl)-Dap(N3-Phe)-OMe], which ring closure, yield over several steps (from C#CCNC(=O)NCC[C@H](NC(=O)OC(C)(C)C)C(=O)N[C@@H](CNC(=O)[C@H](Cc1ccccc1)N=[N+]=[N-])C(=O)OC, 16-membered ring) is on record?
**A.** The ring closure, yield over several steps was 52%.

**Q.** Which ring closure, yield over several steps (from C#CCNC(=O)NCC[C@H](NC(=O)OC(C)(C)C)C(=O)N[C@@H](CCCCN=[N+]=[N-])C(=O)OC, 16-membered ring) does the source give for `COC(=O)[C@@H]1CCCCn2nncc2CNC(=O)NCC[C@H](N)C(=O)N1` [Boc-Dab(CONH-propargyl)-Lys(N3)-OMe] here?
**A.** Its ring closure, yield over several steps is 99%.

**Q.** With `COC(=O)[C@@H]1CCCCNC(=O)[C@H](Cc2ccccc2)n2nncc2CNC(=O)NCC[C@H](N)C(=O)N1` [Boc-Dab(CONH-propargyl)-Lys(N3-Phe)-OMe] as the compound, how does the ring closure, yield over several steps (from C#CCNC(=O)NCC[C@H](NC(=O)OC(C)(C)C)C(=O)N[C@@H](CCCCNC(=O)[C@H](Cc1ccccc1)N=[N+]=[N-])C(=O)OC, 19-membered ring) read?
**A.** Its ring closure, yield over several steps is 78%.

**Q.** With `COC(=O)[C@@H]1CCCn2nncc2CNC(=O)NCC[C@H](N)C(=O)N1` [Boc-Dab(CONH-propargyl)-Orn(N3)-OMe] as the compound, how does the ring closure, yield over several steps (from C#CCNC(=O)NCC[C@H](NC(=O)OC(C)(C)C)C(=O)N[C@@H](CCCN=[N+]=[N-])C(=O)OC, 15-membered ring) read?
**A.** The ring closure, yield over several steps was 99%.

**Q.** For `COC(=O)[C@@H]1Cc2ccc(cc2)-n2nncc2CNC(=O)NCC[C@H](N)C(=O)N1` [Boc-Dab(CONH-propargyl)-Phe(4-N3)-OMe], which ring closure, yield over several steps (from C#CCNC(=O)NCC[C@H](NC(=O)OC(C)(C)C)C(=O)N[C@@H](Cc1ccc(N=[N+]=[N-])cc1)C(=O)OC, 17-membered ring) is on record?
**A.** The ring closure, yield over several steps was 40%.

**Q.** With `COC(=O)[C@@H]1CNC(=O)[C@H](Cc2ccccc2)n2nncc2CCC(=O)NC[C@H](N)C(=O)N1` [Boc-Dap(4-pentynoyl)-Dap(N3-Phe)-OMe] as the compound, how does the ring closure, yield over several steps (from C#CCCC(=O)NC[C@H](NC(=O)OC(C)(C)C)C(=O)N[C@@H](CNC(=O)[C@H](Cc1ccccc1)N=[N+]=[N-])C(=O)OC, 15-membered ring) read?
**A.** The ring closure, yield over several steps was 89%.

**Q.** Which ring closure, yield over several steps (from C#CCCC(=O)NC[C@H](NC(=O)OC(C)(C)C)C(=O)N[C@@H](CCCCN=[N+]=[N-])C(=O)OC, 15-membered ring) does the source give for `COC(=O)[C@@H]1CCCCn2nncc2CCC(=O)NC[C@H](N)C(=O)N1` [Boc-Dap(4-pentynoyl)-Lys(N3)-OMe] here?
**A.** The ring closure, yield over several steps was 88%.

**Q.** Which ring closure, yield over several steps (from C#CCCC(=O)NC[C@H](NC(=O)OC(C)(C)C)C(=O)N[C@@H](CCCCNC(=O)[C@H](Cc1ccccc1)N=[N+]=[N-])C(=O)OC, 18-membered ring) does the source give for `COC(=O)[C@@H]1CCCCNC(=O)[C@H](Cc2ccccc2)n2nncc2CCC(=O)NC[C@H](N)C(=O)N1` [Boc-Dap(4-pentynoyl)-Lys(N3-Phe)-OMe] here?
**A.** Its ring closure, yield over several steps is 99%.

**Q.** Which ring closure, yield over several steps (from C#CCCC(=O)NC[C@H](NC(=O)OC(C)(C)C)C(=O)N[C@@H](CCCN=[N+]=[N-])C(=O)OC, 14-membered ring) does the source give for `COC(=O)[C@@H]1CCCn2nncc2CCC(=O)NC[C@H](N)C(=O)N1` [Boc-Dap(4-pentynoyl)-Orn(N3)-OMe] here?
**A.** The ring closure, yield over several steps was 99%.

**Q.** Which ring closure, yield over several steps (from C#CCCC(=O)NC[C@H](NC(=O)OC(C)(C)C)C(=O)N[C@@H](Cc1ccc(N=[N+]=[N-])cc1)C(=O)OC, 16-membered ring) does the source give for `COC(=O)[C@@H]1Cc2ccc(cc2)-n2nncc2CCC(=O)NC[C@H](N)C(=O)N1` [Boc-Dap(4-pentynoyl)-Phe(4-N3)-OMe] here?
**A.** The ring closure, yield over several steps was 33%.

**Q.** Which ring closure, yield over several steps (from C#CCCCC(=O)NC[C@H](NC(=O)OC(C)(C)C)C(=O)N[C@@H](CNC(=O)[C@H](Cc1ccccc1)N=[N+]=[N-])C(=O)OC, 16-membered ring) does the source give for `COC(=O)[C@@H]1CNC(=O)[C@H](Cc2ccccc2)n2nncc2CCCC(=O)NC[C@H](N)C(=O)N1` [Boc-Dap(5-hexynoyl)-Dap(N3-Phe)-OMe] here?
**A.** Its ring closure, yield over several steps is 99%.

**Q.** For `COC(=O)[C@@H]1CCCCn2nncc2CCCC(=O)NC[C@H](N)C(=O)N1` [Boc-Dap(5-hexynoyl)-Lys(N3)-OMe], which ring closure, yield over several steps (from C#CCCCC(=O)NC[C@H](NC(=O)OC(C)(C)C)C(=O)N[C@@H](CCCCN=[N+]=[N-])C(=O)OC, 16-membered ring) is on record?
**A.** Its ring closure, yield over several steps is 99%.

**Q.** For `COC(=O)[C@@H]1CCCCNC(=O)[C@H](Cc2ccccc2)n2nncc2CCCC(=O)NC[C@H](N)C(=O)N1` [Boc-Dap(5-hexynoyl)-Lys(N3-Phe)-OMe], which ring closure, yield over several steps (from C#CCCCC(=O)NC[C@H](NC(=O)OC(C)(C)C)C(=O)N[C@@H](CCCCNC(=O)[C@H](Cc1ccccc1)N=[N+]=[N-])C(=O)OC, 19-membered ring) is on record?
**A.** Its ring closure, yield over several steps is 99%.

**Q.** For `COC(=O)[C@@H]1CCCn2nncc2CCCC(=O)NC[C@H](N)C(=O)N1` [Boc-Dap(5-hexynoyl)-Orn(N3)-OMe], which ring closure, yield over several steps (from C#CCCCC(=O)NC[C@H](NC(=O)OC(C)(C)C)C(=O)N[C@@H](CCCN=[N+]=[N-])C(=O)OC, 15-membered ring) is on record?
**A.** Its ring closure, yield over several steps is 99%.

**Q.** Which ring closure, yield over several steps (from C#CCNC(=O)NC[C@H](NC(=O)OC(C)(C)C)C(=O)N[C@@H](CNC(=O)[C@H](Cc1ccccc1)N=[N+]=[N-])C(=O)OC, 15-membered ring) does the source give for `COC(=O)[C@@H]1CNC(=O)[C@H](Cc2ccccc2)n2nncc2CNC(=O)NC[C@H](N)C(=O)N1` [Boc-Dap(CONH-propargyl)-Dap(N3-Phe)-OMe] here?
**A.** The ring closure, yield over several steps was 40%.

**Q.** Which ring closure, yield over several steps (from C#CCNC(=O)NC[C@H](NC(=O)OC(C)(C)C)C(=O)N[C@@H](CCCCN=[N+]=[N-])C(=O)OC, 15-membered ring) does the source give for `COC(=O)[C@@H]1CCCCn2nncc2CNC(=O)NC[C@H](N)C(=O)N1` [Boc-Dap(CONH-propargyl)-Lys(N3)-OMe] here?
**A.** The ring closure, yield over several steps was 73%.

**Q.** For `COC(=O)[C@@H]1CCCCNC(=O)[C@H](Cc2ccccc2)n2nncc2CNC(=O)NC[C@H](N)C(=O)N1` [Boc-Dap(CONH-propargyl)-Lys(N3-Phe)-OMe], which ring closure, yield over several steps (from C#CCNC(=O)NC[C@H](NC(=O)OC(C)(C)C)C(=O)N[C@@H](CCCCNC(=O)[C@H](Cc1ccccc1)N=[N+]=[N-])C(=O)OC, 18-membered ring) is on record?
**A.** The ring closure, yield over several steps was 38%.
